According to patent US9333197B2, “Apoptosis signal-regulating kinase inhibitor” (Gilead Sciences, Inc., priority 2012, dated 2016):
Read-outs that look alike come from different tables or passages of the source.

Key:
[1] = Rat pharmacokinetics, 1 mg/kg IV infusion and 5.0 mg/kg PO; type: in vivo; conditions: for clearance / Vd: 1 mg/kg IV infusion; for clearance: read-out: CL in rats (converted); for Vd: read-out: Vss in rats; for bioavailability: 5.0 mg/kg PO, read-out: oral bioavailability (% F) in rats
Protocol: For IV administration the test compound was formulated in 60:40 PEG 400:water with 1 equivalent HCl at 0.5 mg/mL.
For PO (oral) administration, the test compound was formulated in 5/75/10/10 ethanol/PG/solutol/water at 2.5 mg/mL.
IV and PO dosing groups each consisted of 3 male SD rats. […] The animals were fasted overnight prior to dose administration and up to 4 hr after dosing.
For the IV infusion group, the test compound was administered by intravenous infusion over 30 minutes. The rate of infusion was adjusted according to the body weight of each animal to deliver a dose of 1 mg/kg at 2 mL/kg. For the oral dosing group, the test article was administered by oral gavage at 2 mL/kg for a dose of 5.0 mg/kg.
Serial venous blood samples (approximately 0.4 mL each) were taken at specified time points after dosing from each animal. The blood samples were collected into Vacutainer™ tubes (Becton-Disckinson Corp, New Jersey, USA) containing EDTA as the anti-coagulant and were immediately placed on wet ice pending centrifugation for plasma.
An LC/MS/MS method was used to measure the concentration of test compound in plasma.
Non-compartmental pharmacokinetic analysis was performed on the plasma concentration-time data.

[2] = Determination of CACO-2 efflux ratio / permeability; type: in vitro ADME; conditions: human, Caco-2, pH 7.4; read-out: Efflux ratio (B/A)/(A/B)
Protocol: (§1) Caco-2 cells were maintained in Dulbecco's Modification of Eagle's Medium (DMEM) with sodium pyruvate, Glutmax supplemented with 1% Pen/Strep, 1% NEAA and 10% fetal bovine serum in an incubator set at 37° C., 90% humidity and 5% CO2. Caco-2 cells between passage 62 and 72 were seeded at 2100 cells/well and were grown to confluence over at least 21-days on 24 well PET (polyethylene-terephthalate) plates (BD Biosciences). The receiver well contained HBSS buffer (10 mM HEPES, 15 mM Glucose with pH adjusted to pH 6.5) supplemented with 1% BSA pH adjusted to pH 7.4. After an initial equilibration with transport buffer, TEER values were read to test membrane integrity. Buffers containing test compounds were added and 100 μl of solution was taken at 1 and 2 hrs from the receiver compartment. Removed buffer was replaced with fresh buffer and a correction is applied to all calculations for the removed material. The experiment was carried out in replicate. All samples were immediately collected into 400 μl 100% acetonitrile acid to precipitate protein and stabilize test compounds. Cells were dosed on the apical or basolateral side to determine forward (A to B) and reverse (B to A) permeability. Permeability through a cell free trans-well is also determined as a measure of cellular permeability through the membrane and non-specific binding. To test for non-specific binding and compound instability percent recovery is determined. Samples were analyzed by LC/MS/MS.
(§2) Vr and Vd is the volume in the receiver and donor compartment in cm^3, respectively. A is the area of the cell monolayer (0.33 cm^2). D0 and D120 is the measured donor concentration at the beginning and end of the experiment, respectively. R120 is the receiver concentration at the end of the experiment (120 minutes).

Caco-2 cells = assay: as above; type: in vitro ADME; conditions: for CACO A→B: apical to basolateral; for CACO B→A: basolateral to apical
Protocol: as §1, §2

CYP3A4 = CYP3A4 (Homo sapiens (Human), UniProt P08684); assay: Cytochrome P450 inhibition IC50, CYP3A4 (midazolam and testosterone); type: in vitro ADME; conditions: for IC50: comparative table, testosterone substrate, read-out: Cyp3A4 IC50 Testesterone (TST)
ASK1 = ASK1 (Rattus norvegicus, UniProt A0A8I6AEL0); assay: ASK1 293 cell-based assay (cellular EC50), AP-1:luciferase reporter
Protocol: 2. […] Promega Steady-Glo Luciferase Assay System product insert. 3. Media Required Complete Growth Medium, “CGM” DMEM (MediaTech) 10% FBS 1% PSG 100 ug/mL HygromycinB Assay Medium, “AM” DMEM (Invitrogen) 25 mM HEPES 1 mM Sodium Pyruvate 1% PSG 4. Methods Maintenance:
Count cells and dilute to 1.5×10^5 cells per mL; add adenovirus such that there are 5 infectious forming units per cell.
Prime (20 to 30 mL) and plate cells in Greiner poly-D-Lysine coated 384-well plates at 1.2×10^4 cells per well using BioTek uFill (80 uL per well).
Immediately dose plates with 0.4 uL of compound dose series (in 100% DMSO) incubate 24 hours in humidified incubator (37° C., 5% CO2).
Process plates (per manufacturer's instructions) as follows:
Remove 60 uL of AM from assay wells
Add 20 uL per well Steady-Glo Firefly substrate, let sit for 10-20 minutes at room temperature
Acquire data on a fluorescence plate reader

[3] = 3 h, 2 μM, pH 7.4
Protocol: 1 mL Teflon dialysis cells from Harvard Apparatus (Holliston, Mass., USA) were used in these experiments. […] A nominal concentration of 2 μM of compound was spiked into 1 mL of plasma or 1 mL of cell culture media. The total volume of liquid on each side of the cell was 1 mL. After 3 hours equilibration in a 37° C. water bath, samples from each side of the cell were aliquoted into the appropriate vials containing either 1 mL of human plasma (cell culture media), or buffer. Sample vials were weighed and recorded. […] Samples were vortexed and centrifuged for 15 minutes at 12000 G. 200 μL of the supernatant was removed and placed into a new 96 well plate. An additional 200 μL of 1:1 ACN:water was added. The plate was then vortexed and subjected to LC-MS analysis. The percent unbound for an analyte in plasma was calculated using the following equations % Unbound=100(Cf/Ct) where Cf and Ct are the post-dialysis buffer and plasma concentrations, respectively.

[4] = Sprague-Dawley, rat, plasma, male SD rats

Sequence of ASK1 (A0A8I6AEL0 1-1381): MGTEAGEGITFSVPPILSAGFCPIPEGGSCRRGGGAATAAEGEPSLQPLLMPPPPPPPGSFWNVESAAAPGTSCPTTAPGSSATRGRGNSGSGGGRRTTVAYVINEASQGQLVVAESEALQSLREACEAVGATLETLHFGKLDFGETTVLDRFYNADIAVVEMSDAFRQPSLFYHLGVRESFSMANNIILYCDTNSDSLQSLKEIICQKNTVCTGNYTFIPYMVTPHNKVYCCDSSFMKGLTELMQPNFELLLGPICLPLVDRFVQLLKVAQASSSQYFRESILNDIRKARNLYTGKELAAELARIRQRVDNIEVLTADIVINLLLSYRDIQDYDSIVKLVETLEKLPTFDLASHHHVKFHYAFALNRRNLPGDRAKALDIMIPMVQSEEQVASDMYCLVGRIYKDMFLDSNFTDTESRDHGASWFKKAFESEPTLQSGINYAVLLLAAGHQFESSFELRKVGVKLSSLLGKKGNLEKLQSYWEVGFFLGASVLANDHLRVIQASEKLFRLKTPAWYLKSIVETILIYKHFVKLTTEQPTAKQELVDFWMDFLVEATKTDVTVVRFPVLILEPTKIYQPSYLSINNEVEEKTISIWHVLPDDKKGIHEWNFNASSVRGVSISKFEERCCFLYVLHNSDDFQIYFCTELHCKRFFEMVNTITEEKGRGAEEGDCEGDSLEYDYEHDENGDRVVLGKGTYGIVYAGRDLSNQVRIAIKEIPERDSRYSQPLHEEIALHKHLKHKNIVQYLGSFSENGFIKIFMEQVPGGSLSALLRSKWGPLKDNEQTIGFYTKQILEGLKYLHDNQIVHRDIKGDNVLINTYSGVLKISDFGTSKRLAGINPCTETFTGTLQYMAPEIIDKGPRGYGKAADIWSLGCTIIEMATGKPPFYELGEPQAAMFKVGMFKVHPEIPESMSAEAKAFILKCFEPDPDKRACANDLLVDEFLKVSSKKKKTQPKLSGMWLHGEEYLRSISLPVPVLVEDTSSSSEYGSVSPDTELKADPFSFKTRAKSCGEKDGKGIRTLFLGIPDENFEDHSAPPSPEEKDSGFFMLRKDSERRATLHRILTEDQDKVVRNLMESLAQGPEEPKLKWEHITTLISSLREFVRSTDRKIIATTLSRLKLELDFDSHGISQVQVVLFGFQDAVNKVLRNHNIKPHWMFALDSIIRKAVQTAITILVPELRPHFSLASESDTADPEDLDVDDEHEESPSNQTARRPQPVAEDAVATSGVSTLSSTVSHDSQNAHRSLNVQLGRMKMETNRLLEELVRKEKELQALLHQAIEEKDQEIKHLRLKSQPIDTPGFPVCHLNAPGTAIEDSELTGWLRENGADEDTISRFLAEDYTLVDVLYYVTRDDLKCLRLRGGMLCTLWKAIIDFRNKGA
Sequence of CYP3A4 (P08684 whole entry): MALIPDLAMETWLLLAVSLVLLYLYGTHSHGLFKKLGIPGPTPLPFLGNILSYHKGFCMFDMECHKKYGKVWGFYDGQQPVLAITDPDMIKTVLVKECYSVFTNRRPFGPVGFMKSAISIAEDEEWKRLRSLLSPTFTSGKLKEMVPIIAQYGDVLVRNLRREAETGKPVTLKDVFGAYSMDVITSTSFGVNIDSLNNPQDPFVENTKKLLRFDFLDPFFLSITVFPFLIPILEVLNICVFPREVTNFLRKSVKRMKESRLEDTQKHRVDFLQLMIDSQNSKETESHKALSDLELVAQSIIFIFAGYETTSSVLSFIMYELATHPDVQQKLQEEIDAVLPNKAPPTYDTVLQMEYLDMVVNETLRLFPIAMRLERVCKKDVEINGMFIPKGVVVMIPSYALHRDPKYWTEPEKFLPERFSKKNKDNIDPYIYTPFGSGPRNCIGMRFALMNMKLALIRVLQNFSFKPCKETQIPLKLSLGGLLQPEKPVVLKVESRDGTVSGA

Row | Compound | clearance [1, 4] [mL/min/kg] | Vd [1, 4] [L/kg] | bioavailability [1, 4] [%] | number of times compound of formula (I) shows an improvement over the indicated compound: % F in rats ([1]; rat, in vivo) [X] | number of times compound of formula (I) shows an improvement over the indicated compound: CL in rats ([1]; rat, in vivo) [X] | number of times compound of formula (I) shows an improvement over the indicated compound: t½ in rats ([1]; rat, in vivo) [X] | CACO A→B (Caco-2 cells) | CACO B→A (Caco-2 cells) | number of times compound of formula (I) shows an improvement over the indicated compound: Cyp3A4 IC50 (TST) (CYP3A4) [X] | IC50 (CYP3A4) [nM] | further results
1 | Cc1ccc(C(=O)Nc2cccc(-c3nncn3C3CC3)n2)cc1-n1cnc(C2CC2)c1 [Compound B] | 6.5 | 0.54 | 50 | 1.5 | 3.6 | 3.9 | 0.26 | 4 | 2.8 | 4000 | half-life ([1]; Sprague-Dawley, rat, plasma, male SD rats, read-out: t1/2 in rats (converted)): 1.3 h; efflux ratio at 120 min [2]: 15.4; number of times compound of formula (I) shows an improvement over the indicated compound: Cyp3A4 IC50/PBAdj.EC50 (CYP3A4): 92 X; Cyp3A4 IC50/PBAdj.EC50 (CYP3A4; ratio of Cyp3A4 inhibition and protein binding adjusted EC50): 7; number of times compound of formula (I) shows an improvement over the indicated compound: EC50 (ASK1): 9 X; number of times compound of formula (I) shows an improvement over the indicated compound: PBadj EC50 (ASK1): 33 X; EC50 (ASK1; 293/AP1-Luc cells infected with adenovirus expressing kinase active ASK1, 24 hours): 18 nM; EC50 (ASK1; protein binding adjusted EC50, read-out: PBadj EC50): 563 nM
2 | Cc1cc(F)c(C(=O)Nc2cccc(-c3nncn3C(C)C)n2)cc1-n1cnc(C2CC2)c1 [compound of formula (I), 5-(4-cyclopropyl-1H-imidazol-1-yl)-N-(6-(4-isopropyl-4H-1,2,4-triazol-3-yl)pyridin-2-yl)-2-fluoro-4-methylbenzamide] |  |  |  |  |  |  |  |  |  |  | Vd ([1]; rat, plasma, male SD rats): 0.55 L/kg; bioavailability ([1]; rat, plasma, male SD rats): 75%; percent unbound measured in human plasma [3]: 11.94%
3 | CC(C)n1cnnc1-c1cccc(NC(=O)c2cccc(-n3cnc(C4CC4)c3)c2)n1 [Compound A] | 5 | 0.17 | 11 | 6.8 | 2.7 | 8.6 | 3.1 | 18.5 | 10 | 1100 | t1/2 in rats ([1]; male SD rats): 0.59 h; number of times compound of formula (I) shows an improvement over the indicated compound: Vss in rats ([1]; rat, in vivo): 3.2 X
